Biological target: Mu-type opioid receptor (Homo sapiens, UniProt P35372)
Assay type: functional, cell-based, CHO-K1
Description: Antagonist activity at human MOR expressed in CHO-K1 cells assessed as reduction in fentanyl induced cAMP production incubated for 30 mins by Lance ultra cAMP assay

Mu-type opioid receptor, sequence (P35372 whole entry): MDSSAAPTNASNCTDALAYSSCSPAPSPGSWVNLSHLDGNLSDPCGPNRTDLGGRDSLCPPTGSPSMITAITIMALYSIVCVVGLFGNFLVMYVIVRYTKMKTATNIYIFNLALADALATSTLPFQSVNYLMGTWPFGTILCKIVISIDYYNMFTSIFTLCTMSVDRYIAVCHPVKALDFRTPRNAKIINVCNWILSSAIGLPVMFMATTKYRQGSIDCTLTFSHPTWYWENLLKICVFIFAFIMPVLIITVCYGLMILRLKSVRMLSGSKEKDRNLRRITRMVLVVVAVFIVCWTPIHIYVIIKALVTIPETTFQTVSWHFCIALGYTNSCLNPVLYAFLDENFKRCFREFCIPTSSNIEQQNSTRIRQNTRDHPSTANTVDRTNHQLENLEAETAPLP

Oc1ccc2c3c1O[C@H]1C(=C(F)F)CC[C@@]4(O)[C@@H](C2)N(CC2CC2)CC[C@]314 was tested. Which IC50 did it give?
Its IC50 is 5.1 nM.

From ChEMBL document CHEMBL5107961, “Design, synthesis, and biological evaluation of C6-difluoromethylenated epoxymorphinan Mu opioid receptor antagonists” (RSC Med Chem, 2022)
